Data: patent publication US20260308152A1, “METHODS OF MAKING 2-AMINO-1-(3-HYDROXY-2,6-DIMETHYLPHENYL)-5,6-DIMETHYL-1H-PYRROLO-[2,3-B]PYRIDINE-3-CARBOXAMIDE, A MYT1 INHIBITOR” (Repare Therapeutics Inc., priority 2022, published 2026)
≈ marks a conversion by molar mass, not a printed value. Marks after values point to notes of the source that are not given here.

Tests used:
Assay type in all cases: physicochemical
[1] = Solubility of INT 1b in organic solvents; settings: most organic solvents (FIG. 1)
Text: FIG. 1 is a graph illustrating the solubility of INT 1b in organic solvents, including heptane, toluene, xylenes, isopropyl acetate (IPAc), ethyl acetate (EtOAc), methyl ethyl ketone (MEK), methyl t-butyl ether (MTBE), dichloromethane (DCM), methanol (MeOH), ethanol (EtOH), isopropanol (iPrOH), acetonitrile (MeCN), water, 5 M H2SO4, and 1 M H2SO4.

[2] = Chiral acid salt screen: approximate solubility of starting material in solvents; settings: ambient temperature, 3 days
Description: INT 1f salts (50-60 mg) were weighed into 4 ml vials. Solvent (~0.2-1.0 mL) was added to each vial, and the vials were stirred at ambient temperature for 3 days. Additional solvent was added to vials with thick slurries, and additional salts were added to vials with clear solutions.
In this example, the resolution of INT 1g and Compound 1 via chiral salts is summarized.

[3] = Aromatic solvent screen: solubility of INT 1f/(R)-CSA salt
Text: Following the encouraging result employing anisole as the solvent and switching to (R)-CSA to afford the desired diastereomer, the following common aromatic solvents were screened: 1,3-dimethoxybenzene;
2-, 3-, and 4-methyanisoles; o, m, and p-xylenes; and α,α,α-trifluorotoluene (Table 18). […] In addition to anisole, 4-methylanisole and 1,3-dimethoxybenzene also afforded enantioenriched crystalline solids with enantiomeric ratios (e.r.) of 90:10 and 87:13, respectively. However, the highest e.r. was obtained with anisole (92:8).

[4] = Solubility in anisole at various temperatures
Text: The solubility of racemic INT 1f (recrystallized from anisole) in anisole at various temperatures was investigated (Table 28).
The solubility of (S)-INT 1f/(R)-CSA salt in anisole at various temperatures was also investigated

Structure (SMILES)	Approximate Solubility of Starting Material ([2]; 1,4-Dioxane)	Approximate Solubility of Starting Material ([2]; Acetone:water (9:1))	Approximate Solubility of Starting Material ([2]; Anisole)	Approximate Solubility of Starting Material ([2]; DCM)	Approximate Solubility of Starting Material ([2]; EtOAc)	Approximate Solubility of Starting Material ([2]; EtOH:Heptane (1:1))	Approximate Solubility of Starting Material ([2]; EtOH)	Approximate Solubility of Starting Material ([2]; MeCN)	Approximate Solubility of Starting Material ([2]; THF)	Approximate Solubility of Starting Material ([2]; Toluene)	other results
Cc1cc(Br)c(=O)[nH]c1C [INT 1b]	–	–	–	–	–	–	–	–	–	–	solubility in most organic solvents [1]: poor solubility
COc1ccc(C)c(-n2c(N)c(C#N)c3cc(C)c(C)nc32)c1C.Cc1ccc(C(=O)O[C@H](C(=O)O)[C@H](OC(=O)c2ccc(C)cc2)C(=O)O)cc1	Very soluble	Soluble	Soluble	Very soluble	Soluble	Soluble	Soluble	Soluble	Very soluble	Soluble	–
CC(C)c1cc(C(C)C)c(-c2cc3ccccc3c3c2OP(=O)(O)Oc2c(-c4c(C(C)C)cc(C(C)C)cc4C(C)C)cc4ccccc4c2-3)c(C(C)C)c1.COc1ccc(C)c(-n2c(N)c(C#N)c3cc(C)c(C)nc32)c1C [INT 1f/(S)-TRIP]	Highly soluble	Highly soluble	Very soluble	Highly soluble	Very soluble	Soluble	Soluble	Soluble	Highly soluble	Highly soluble	–
Cc1cc2c(C(N)=O)c(N)n(-c3c(C)ccc(O)c3C)c2nc1C [Compound 1/Acid h]	–	Soluble	–	Partially soluble	–	–	Soluble	–	–	–	–
CC1(C)C2CC[C@]1(CS(=O)(=O)O)C(=O)C2.COc1ccc(C)c(-n2c(N)c(C#N)c3cc(C)c(C)nc32)c1C [INT 1f/(R)-CSA]	–	–	–	–	–	–	–	–	–	–	solubility ([3]; 1,3-dimethoxybenzene and anisole): high solubility; solubility ([3]; 2-, 3-, 4-methyanisole with heating): good solubility; solubility ([3]; other aromatic solvents (xylenes, α,α,α-trifluorotoluene)): poor solubility
Cc1cc2c(C(N)=O)c(N)n(-c3c(C)ccc(O)c3C)c2nc1C [Compound 1/Acid d]	–	–	Partially soluble	Partially soluble	–	Partially soluble	–	–	–	–	–
COc1ccc(C)c(-n2c(N)c(C#N)c3cc(C)c(C)nc32)c1C.O=C(O[C@H](C(=O)O)[C@H](OC(=O)c1ccccc1)C(=O)O)c1ccccc1 [INT 1f/(+)-2,3-Dibenzoyl-D-tartaric Acid]	Highly soluble	Soluble	Soluble	Highly soluble	Soluble	Soluble	Soluble	Soluble	Highly soluble	Soluble	–
CC1(C)C2CC[C@@]1(CS(=O)(=O)O)C(=O)C2.COc1ccc(C)c(-n2c(N)c(C#N)c3cc(C)c(C)nc32)c1C [INT 1f/(S)-CSA]	Soluble	Highly soluble	Very soluble	Very soluble	Soluble	Soluble	Very soluble	Highly soluble	Very soluble	Highly soluble	–
COc1ccc(C)c(-n2c(N)c(C#N)c3cc(C)c(C)nc32)c1C.O=P1(O)Oc2ccc3ccccc3c2-c2c(ccc3ccccc23)O1	Highly soluble	Very soluble	Very soluble	Highly soluble	Soluble	Soluble	Very soluble	Soluble	Highly soluble	Very soluble	–
COc1ccc(C)c(-n2c(N)c(C#N)c3cc(C)c(C)nc32)c1C (racemic) [INT 1f, 2-Amino-1-(3-methoxy-2,6-dimethylphenyl)-5,6-dimethyl-1H-pyrrolo[2,3-b]-pyridine-3-carbonitrile]	–	–	–	–	–	–	–	–	–	–	Solubility in anisole ([4]; racemic, crystal form recrystallized from anisole, 25° C.): 14.01 mg/mL (≈ 43.7 mM); Solubility in anisole ([4]; racemic, crystal form recrystallized from anisole, 30° C.): 17.72 mg/mL (≈ 55.3 mM); Solubility in anisole ([4]; racemic, crystal form recrystallized from anisole, 40° C.): 21.26 mg/mL (≈ 66.4 mM); Solubility in anisole ([4]; racemic, crystal form recrystallized from anisole, 50° C.): 25.99 mg/mL (≈ 81.1 mM); Solubility in anisole ([4]; racemic, crystal form recrystallized from anisole, 60° C.): 46.5 mg/mL (≈ 145 mM)
COc1ccc(C)c(-n2c(N)c(C#N)c3cc(C)c(C)nc32)c1C.O=P1(O)Oc2c(-c3c(C4CCCCC4)cc(C4CCCCC4)cc3C3CCCCC3)cc3ccccc3c2-c2c(c(-c3c(C4CCCCC4)cc(C4CCCCC4)cc3C3CCCCC3)cc3ccccc23)O1 [INT 1f/(S)-TCYP]	Soluble	Soluble	Very soluble	Highly soluble	Highly soluble	Soluble	Very soluble	Very soluble	Highly soluble	Very soluble	–
CC1(C)[C@H]2CC[C@]1(CS(=O)(=O)O)C(=O)C2.COc1ccc(C)c(-n2c(N)c(C#N)c3cc(C)c(C)nc32)c1C [(S)-INT 1f/(R)-CSA, (S)-2-Ammonium-1-(3-methoxy-2,6-dimethylphenyl)-5,6-dimethyl-1H-pyrrolo[2,3-b]-pyridine-3-carbonitrile/(R)-CSA]	–	–	–	–	–	–	–	–	–	–	Solubility in anisole ([4]; salt, 21° C.): 2.39 mg/mL; Solubility in anisole ([4]; salt, 30° C.): 3.78* mg/mL; Solubility in anisole ([4]; salt, 40° C.): 3.37 mg/mL; Solubility in anisole ([4]; salt, 50° C.): 4.20 mg/mL; Solubility in anisole ([4]; salt, 60° C.): 7.29 mg/mL
Cc1cc2c(C(N)=O)c(N)n(-c3c(C)ccc(O)c3C)c2nc1C [Compound 1/Acid f]	–	Soluble	Soluble	Partially soluble	–	Soluble	Partially soluble	Partially soluble	Soluble	–	–
CC1(C)C2CCC1(CS(=O)(=O)O)C(=O)C2Br.COc1ccc(C)c(-n2c(N)c(C#N)c3cc(C)c(C)nc32)c1C.O	Highly soluble	Highly soluble	Soluble	Highly soluble	Very soluble	Highly soluble	Very soluble	Highly soluble	Highly soluble	Soluble	–
